IC50 data for one compound are collected here from patent US20210032257A1, “(E)-1-(4-(DIMETHYLAMINO)BUT-2-ENOYL)PYRROLIDIN-3-YL 4-((3-ISOPROPYL-5-METHYLPYRAZOLO[1,5-A]PYRIMIDIN-7-YL)AMINO)PIPERIDINE-1-CARBOXYLATE FOR INHIBITING CDK7” (Eli Lilly and Company, priority 2017, published 2021).

The test system of one experiment is cMyc in HCT116 cells. Kind of experiment: cMyc cell based Acumen assay. The following applies: Homo sapiens, HCT-116, 4 hours, read-out: Relative IC50 for cMyc.
A further experiment concerns the target T1, CDK1/CycB1 (Homo sapiens, UniProt P06493).
T1 construct: purchased ProQinase
The experiment in a line: ProQinase WT Profiler radiometric protein kinase assay. It is filed as biochemical. The conditions noted are these: non standard IC50 from 4 concentrations, kinase 7 nM, ATP 1 μM. On the procedure: (§1) Kinase inhibition profile of compound is determined by measuring residual activity values at four concentrations in singlicate in 320 wild-type protein kinase assays. The compounds are tested at 20 μM, 2 μM, 0.2 μM and 0.02 μM in singlicate. The final DMSO concentration in all reaction cocktails (including high and low controls) is 1%.
(§2) A radiometric protein kinase assay (33PANQINASE® Activity Assay, ProQinase) is used for measuring the kinase activity of the 320 protein kinases. All kinase assays are performed in 96-well FLASHPLATES™ in a 50 μL reaction volume. The reaction cocktail is pipetted in 4 steps in the following order:
(§3) All PKC assays (except the PKC-mu and the PKC-nu assay) additionally contain 1 mM CaCl2). 4 mM EDTA, 5 μg/mL Phosphatidylserine and 1 μg/mL 1,2-Dioleyl-glycerol. The CAMK1D, CAMK2A, CAMK2B, CAMK2D, CAMK2G, CAMK4, CAMKK1, CAMKK2, DAPK2, EEF2K, MYLK, MYLK2 and MYLK3 assays additionally contain 1 μg/mL Calmodulin and 0.5 mM CaCl2). The PRKG1 and PRKG2 assays additionally contain 1 μM cGMP. The DNA-PK assay additionally contained 2.5 μg/mL DNA.
(§4) The protein kinase reaction cocktails are incubated at 30° C. for 60 minutes. The reaction is stopped with 50 μL of 2% (v/v) H3PO4, plates are aspirated and washed two times with 200 μL 0.9% (w/v) NaCl. […] All protein kinase assays are performed with a BeckmanCoulter BIOMEK® 2000/SL robotic system. All protein kinases provided by ProQinase are expressed in Sf9 insect cells or in E. coli as recombinant GST-fusion proteins or His-tagged proteins, either as full-length or enzymatically active fragments. All kinases are produced from human cDNAs and purified by either GSH-affinity chromatography or immobilized metal. Affinity tags are removed from a number of kinases during purification. The purity of the protein kinases is examined by SDS-PAGE/Coomassie staining, the identity is checked by mass spectroscopy. Kinases from external vendors (CAR=Carna Biosciences Inc.; INV=Life Technologies (Invitrogen Corporation™); MIL=Merck-Millipore (Millipore Corporation™), see Table 1) are expressed, purified and quality-controlled by virtue of the vendors readings.
(§5) For each kinase, the median value of the cpm of three wells is defined as “low control” (n=3). This value reflects unspecific binding of radioactivity to the plate in the absence of a protein kinase but in the presence of the substrate. […] The difference between high and low control of each enzyme is taken as 100% activity. As part of the data evaluation, the low control of each kinase is subtracted from the high control value as well as from their corresponding “compound values”. The residual activity (in %) for each compound well is calculated by using the following formula: Res. Activity (%)=100×[(signal of compound−low control)/(high control−low control)]. Non Standard IC50s are calculated using a customized excel spreadsheet in conjunction with XLFit Add-in. Due to the low number of data points, (4) XL-Fit calculates a non standard IC50 using a four parametric equation where three parameters are locked to fixed values.
(§6) A: Minimum value of activity, Also known as Bottom. Fixed to 0 B: Maximum value of activity, Also known as Top. Fixed to 100 C: Inflexion point of the curve D: Hill Slope. Fixed to 1 Y: The dependent variable (i.e. what you measure as the signal) X: The independent variable (i.e. what you control, such as, dose, concentration, etc.)
(§7) The way to calculate the Non Standard IC50 is to assign random values to C parameter and repeat it iteratively. The algorithm then measures the differences in the sum of the residuals squared and will look for successive consecutive iterations where the change in the residuals is converging.

For a further experiment, the target named is T2, CDK16/CycY (Homo sapiens, UniProt Q00536).
T2 construct: purchased ProQinase
The description is as above. The experiment is classed as biochemical. The following applies: non standard IC50 from 4 concentrations, kinase 3.2 nM, ATP 0.3 μM. On the procedure:
as §1, §2, §3, §4, §5, §6, §7

For a further experiment, the target named is T3, CDK19/CycC (Homo sapiens, UniProt Q9BWU1).
T3 construct: purchased ProQinase
Described as above. It is filed as biochemical. The conditions noted are these: non standard IC50 from 4 concentrations, kinase 30.9 nM, ATP 3 μM. As to the method: as §1, §2, §3, §4, §5, §6, §7

The next experiment concerns the target T4, CDK2/CycE1 (Homo sapiens, UniProt P24941).
T4 construct: purchased ProQinase
The experiment is described as above. The experiment is classed as biochemical. The conditions noted are these: non standard IC50 from 4 concentrations, kinase 1.5 nM, ATP 1 μM. On the procedure: as §1, §2, §3, §4, §5, §6, §7

In another experiment the target is T5, CDK12/CycK (Homo sapiens, UniProt Q9NYV4).
T5 construct: purchased ProQinase
Kind of experiment: ProQinase radiometric protein kinase assay, 10 concentrations. It is filed as biochemical. The conditions noted are these: kinase 14.7 nM, ATP 0.3 μM. On the procedure: as §2, §3
(§8) The protein kinase reaction cocktails are incubated at 30° C. for 60 minutes. […] Kinases from external vendors (CAR=Carna Biosciences Inc.; INV=Life Technologies (Invitrogen Corporation™); MIL=Merck-Millipore (Millipore Corporation™), see Table 1) are expressed, purified and quality-controlled by virtue of the vendors readings.
(§9) CDK12 and CDK13 (ProQinase) are tested essentially as above but separately at 10 concentrations ([…] to […]) using semi-logarithmic dilutions. For the 10 points, the analysis the residual activities for each concentration and the compound IC50 values are calculated using QUATTRO® WORKFLOW™ V3.1.1. […]

The target of another experiment is T6, CDK13/CycK (Homo sapiens, UniProt Q14004).
T6 construct: purchased ProQinase
The experiment is described as above. The following applies: kinase 29.2 nM, ATP 0.3 μM. The experiment is classed as biochemical. As to the method:
as §2, §3, §8, §9

T2 sequence (Q00536 whole entry): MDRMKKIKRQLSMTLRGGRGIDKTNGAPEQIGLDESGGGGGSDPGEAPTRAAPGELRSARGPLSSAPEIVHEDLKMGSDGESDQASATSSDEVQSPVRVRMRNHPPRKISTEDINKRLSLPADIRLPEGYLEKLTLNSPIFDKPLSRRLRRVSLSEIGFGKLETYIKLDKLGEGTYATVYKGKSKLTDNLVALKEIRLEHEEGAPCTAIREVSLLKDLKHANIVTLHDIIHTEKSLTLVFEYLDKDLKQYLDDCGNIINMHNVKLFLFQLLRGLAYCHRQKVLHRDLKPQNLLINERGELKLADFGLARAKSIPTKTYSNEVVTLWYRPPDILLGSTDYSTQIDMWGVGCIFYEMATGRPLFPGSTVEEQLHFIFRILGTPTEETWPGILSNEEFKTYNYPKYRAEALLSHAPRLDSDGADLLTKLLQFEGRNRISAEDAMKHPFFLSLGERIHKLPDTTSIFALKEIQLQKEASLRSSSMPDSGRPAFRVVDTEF
T2 sequence (Q8ND76 whole entry partner): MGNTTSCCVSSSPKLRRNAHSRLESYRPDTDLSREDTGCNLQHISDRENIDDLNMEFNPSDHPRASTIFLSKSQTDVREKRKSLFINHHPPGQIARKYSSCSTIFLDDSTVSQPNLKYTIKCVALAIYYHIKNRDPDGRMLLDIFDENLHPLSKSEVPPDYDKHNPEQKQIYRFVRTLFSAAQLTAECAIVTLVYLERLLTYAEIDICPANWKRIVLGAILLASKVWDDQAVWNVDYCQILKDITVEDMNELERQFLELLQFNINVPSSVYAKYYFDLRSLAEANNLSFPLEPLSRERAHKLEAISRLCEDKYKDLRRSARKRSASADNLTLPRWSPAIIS
T1 sequence (P06493 whole entry): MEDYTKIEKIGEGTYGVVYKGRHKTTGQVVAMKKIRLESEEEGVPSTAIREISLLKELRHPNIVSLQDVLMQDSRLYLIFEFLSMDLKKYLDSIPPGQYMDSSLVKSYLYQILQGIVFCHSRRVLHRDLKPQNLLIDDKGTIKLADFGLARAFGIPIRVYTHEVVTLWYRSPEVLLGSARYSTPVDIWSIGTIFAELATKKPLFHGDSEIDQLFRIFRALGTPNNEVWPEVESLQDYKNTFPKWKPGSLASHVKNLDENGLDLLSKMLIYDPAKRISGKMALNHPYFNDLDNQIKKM
T1 sequence (P14635 whole entry partner): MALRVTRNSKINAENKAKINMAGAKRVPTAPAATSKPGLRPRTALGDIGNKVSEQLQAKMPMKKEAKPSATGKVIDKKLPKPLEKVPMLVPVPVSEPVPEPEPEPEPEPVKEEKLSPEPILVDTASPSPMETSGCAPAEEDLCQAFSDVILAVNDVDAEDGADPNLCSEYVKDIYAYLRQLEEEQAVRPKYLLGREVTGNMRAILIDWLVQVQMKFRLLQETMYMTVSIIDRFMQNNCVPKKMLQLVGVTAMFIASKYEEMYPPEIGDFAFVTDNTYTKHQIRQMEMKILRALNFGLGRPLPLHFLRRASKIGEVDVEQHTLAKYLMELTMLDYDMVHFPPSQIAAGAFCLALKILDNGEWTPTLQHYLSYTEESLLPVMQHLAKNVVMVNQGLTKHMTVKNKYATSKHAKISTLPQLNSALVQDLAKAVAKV
T6 sequence (Q14004 whole entry): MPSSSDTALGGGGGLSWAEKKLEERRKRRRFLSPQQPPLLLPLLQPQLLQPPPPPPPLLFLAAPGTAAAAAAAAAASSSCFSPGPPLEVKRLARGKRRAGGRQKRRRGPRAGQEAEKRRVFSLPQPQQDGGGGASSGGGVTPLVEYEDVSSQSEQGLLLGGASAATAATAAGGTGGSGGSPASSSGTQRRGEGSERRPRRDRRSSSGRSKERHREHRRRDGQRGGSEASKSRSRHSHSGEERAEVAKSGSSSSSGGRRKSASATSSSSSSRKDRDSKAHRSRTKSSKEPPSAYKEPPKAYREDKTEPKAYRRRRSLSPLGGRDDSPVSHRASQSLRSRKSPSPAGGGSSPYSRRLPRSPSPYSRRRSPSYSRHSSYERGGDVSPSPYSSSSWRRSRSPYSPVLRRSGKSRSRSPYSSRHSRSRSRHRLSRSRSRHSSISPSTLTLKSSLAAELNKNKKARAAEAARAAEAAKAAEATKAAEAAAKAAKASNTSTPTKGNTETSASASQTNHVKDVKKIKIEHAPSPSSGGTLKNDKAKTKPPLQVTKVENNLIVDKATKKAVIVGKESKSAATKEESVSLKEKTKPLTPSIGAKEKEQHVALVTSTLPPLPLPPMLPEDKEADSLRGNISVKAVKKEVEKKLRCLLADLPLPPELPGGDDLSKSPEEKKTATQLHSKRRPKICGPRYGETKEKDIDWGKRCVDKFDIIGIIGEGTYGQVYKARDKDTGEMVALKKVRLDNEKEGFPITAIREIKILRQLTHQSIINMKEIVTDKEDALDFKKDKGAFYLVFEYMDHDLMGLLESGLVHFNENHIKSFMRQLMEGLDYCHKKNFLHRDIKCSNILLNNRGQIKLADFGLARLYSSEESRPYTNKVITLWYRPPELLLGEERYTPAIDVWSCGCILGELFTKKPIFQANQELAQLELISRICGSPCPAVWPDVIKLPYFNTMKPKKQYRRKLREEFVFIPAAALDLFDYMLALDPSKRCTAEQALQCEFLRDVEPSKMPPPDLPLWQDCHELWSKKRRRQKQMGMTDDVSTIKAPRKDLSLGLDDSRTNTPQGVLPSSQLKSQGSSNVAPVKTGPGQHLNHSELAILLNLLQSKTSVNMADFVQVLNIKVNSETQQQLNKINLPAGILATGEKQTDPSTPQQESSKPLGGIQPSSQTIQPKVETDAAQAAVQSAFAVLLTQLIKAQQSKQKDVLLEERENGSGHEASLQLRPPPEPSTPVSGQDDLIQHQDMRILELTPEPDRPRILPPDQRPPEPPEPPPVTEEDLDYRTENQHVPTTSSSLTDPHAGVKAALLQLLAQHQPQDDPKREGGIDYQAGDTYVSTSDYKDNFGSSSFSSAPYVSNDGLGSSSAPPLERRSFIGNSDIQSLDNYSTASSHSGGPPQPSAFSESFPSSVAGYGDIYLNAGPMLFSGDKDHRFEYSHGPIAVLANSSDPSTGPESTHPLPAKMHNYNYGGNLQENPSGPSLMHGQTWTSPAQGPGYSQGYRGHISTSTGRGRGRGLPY
T6 sequence (O75909 whole entry partner): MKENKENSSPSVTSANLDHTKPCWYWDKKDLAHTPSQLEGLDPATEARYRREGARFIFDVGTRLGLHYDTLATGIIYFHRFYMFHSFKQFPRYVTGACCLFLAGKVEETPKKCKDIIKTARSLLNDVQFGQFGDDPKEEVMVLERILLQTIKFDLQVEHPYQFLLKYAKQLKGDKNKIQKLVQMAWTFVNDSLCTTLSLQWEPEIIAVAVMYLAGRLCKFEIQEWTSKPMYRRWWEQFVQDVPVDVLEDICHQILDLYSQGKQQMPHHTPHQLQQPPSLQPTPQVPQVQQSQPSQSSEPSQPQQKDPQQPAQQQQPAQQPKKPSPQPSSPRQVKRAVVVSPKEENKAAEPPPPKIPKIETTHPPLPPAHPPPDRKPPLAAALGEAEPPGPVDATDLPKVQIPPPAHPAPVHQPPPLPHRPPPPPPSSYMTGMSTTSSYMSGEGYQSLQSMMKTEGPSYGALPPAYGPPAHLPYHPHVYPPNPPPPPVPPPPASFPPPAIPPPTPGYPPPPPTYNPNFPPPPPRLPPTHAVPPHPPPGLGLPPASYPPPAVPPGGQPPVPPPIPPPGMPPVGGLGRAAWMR
T3 sequence (Q9BWU1 whole entry): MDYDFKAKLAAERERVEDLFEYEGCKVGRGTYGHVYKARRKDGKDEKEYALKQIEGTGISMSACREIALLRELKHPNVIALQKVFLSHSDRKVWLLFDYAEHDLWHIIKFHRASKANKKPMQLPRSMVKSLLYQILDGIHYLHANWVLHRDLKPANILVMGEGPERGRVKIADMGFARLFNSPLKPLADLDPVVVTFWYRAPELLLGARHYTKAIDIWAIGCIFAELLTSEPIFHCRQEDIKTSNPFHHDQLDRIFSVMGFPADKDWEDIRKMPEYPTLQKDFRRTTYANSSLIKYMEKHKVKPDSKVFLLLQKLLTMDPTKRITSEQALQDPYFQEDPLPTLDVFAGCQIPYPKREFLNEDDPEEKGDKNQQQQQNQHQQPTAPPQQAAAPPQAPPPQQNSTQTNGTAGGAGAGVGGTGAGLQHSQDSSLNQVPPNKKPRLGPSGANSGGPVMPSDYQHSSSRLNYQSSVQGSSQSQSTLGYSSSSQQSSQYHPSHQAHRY
T3 sequence (P24863 whole entry partner): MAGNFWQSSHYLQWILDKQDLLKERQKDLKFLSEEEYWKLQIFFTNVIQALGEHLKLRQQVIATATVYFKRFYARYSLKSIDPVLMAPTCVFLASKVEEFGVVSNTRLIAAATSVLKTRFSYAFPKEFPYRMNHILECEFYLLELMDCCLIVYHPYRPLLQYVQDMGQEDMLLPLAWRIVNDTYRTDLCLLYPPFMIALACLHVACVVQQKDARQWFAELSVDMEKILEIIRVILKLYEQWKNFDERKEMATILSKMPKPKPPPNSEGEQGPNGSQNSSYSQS

As a reminder, the IC50 is the concentration at which inhibition is half-maximal. Take `Cc1cc(NC2CCN(C(=O)O[C@H]3CCN(C(=O)/C=C/CN(C)C)C3)CC2)n2ncc(C(C)C)c2n1` [Example 1, [(3S)-1-[(E)-4-(dimethylamino)but-2-enoyl]pyrrolidin-3-yl] 4-[(3-isopropyl-5-methyl-pyrazolo[1,5-a]pyrimidin-7-yl)amino]piperidine-1-carboxylate]: the IC50 with cMyc in HCT116 cells was 0.0828 µM; against CDK1/CycB1 it was at least 20 µM; at CDK16/CycY it was 9.07 µM; on CDK19/CycC, 7.41 µM; against CDK2/CycE1, at least 20 µM; against CDK12/CycK, 14.8 µM. The IC50 on CDK13/CycK is at least 20 µM.
